Data published in ChEMBL document CHEMBL1132043, “4-N-linked-heterocyclic piperidine derivatives with high affinity and selectivity for human dopamine D4 receptors” (Bioorg Med Chem Lett, 1999).

Assays:
Assay in all cases: biochemical
D(3) dopamine receptor = D(3) dopamine receptor (Homo sapiens, UniProt P35462)
Description: Displacement of [3H]spiperone from human Dopamine receptor D3 expressed in HEK293 cells

D(2) dopamine receptor = D(2) dopamine receptor (Homo sapiens, UniProt P14416)
Description: Displacement of [3H]spiperone from human Dopamine receptor D2 expressed in CHO cells

D(4) dopamine receptor = target: T1, D(4) dopamine receptor (Homo sapiens, UniProt P21917)
T1 sequence (P21917 whole entry): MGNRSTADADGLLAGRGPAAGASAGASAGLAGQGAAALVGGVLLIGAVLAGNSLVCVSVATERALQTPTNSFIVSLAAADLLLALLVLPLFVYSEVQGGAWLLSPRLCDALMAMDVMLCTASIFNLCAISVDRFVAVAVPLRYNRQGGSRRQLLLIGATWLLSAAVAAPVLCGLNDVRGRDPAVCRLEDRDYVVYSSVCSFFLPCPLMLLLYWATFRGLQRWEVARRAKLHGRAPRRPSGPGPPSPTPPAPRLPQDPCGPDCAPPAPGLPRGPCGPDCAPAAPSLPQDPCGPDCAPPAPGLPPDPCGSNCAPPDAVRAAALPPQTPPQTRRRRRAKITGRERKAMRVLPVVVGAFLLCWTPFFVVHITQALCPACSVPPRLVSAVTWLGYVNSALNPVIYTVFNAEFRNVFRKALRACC
Description: Displacement of [3H]spiperone from human Dopamine receptor D4 expressed in HEK293 cells

D(3) dopamine receptor, sequence (P35462 whole entry): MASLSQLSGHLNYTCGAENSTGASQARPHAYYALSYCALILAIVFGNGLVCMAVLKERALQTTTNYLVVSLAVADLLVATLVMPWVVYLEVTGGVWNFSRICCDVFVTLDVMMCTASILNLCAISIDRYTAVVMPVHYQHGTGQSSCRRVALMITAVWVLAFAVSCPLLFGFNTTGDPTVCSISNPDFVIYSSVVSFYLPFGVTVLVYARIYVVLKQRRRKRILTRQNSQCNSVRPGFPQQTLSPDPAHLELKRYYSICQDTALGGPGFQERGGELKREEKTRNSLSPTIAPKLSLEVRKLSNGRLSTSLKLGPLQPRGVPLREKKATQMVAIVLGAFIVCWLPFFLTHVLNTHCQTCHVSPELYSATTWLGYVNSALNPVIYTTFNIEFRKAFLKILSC
D(2) dopamine receptor, sequence (P14416 whole entry): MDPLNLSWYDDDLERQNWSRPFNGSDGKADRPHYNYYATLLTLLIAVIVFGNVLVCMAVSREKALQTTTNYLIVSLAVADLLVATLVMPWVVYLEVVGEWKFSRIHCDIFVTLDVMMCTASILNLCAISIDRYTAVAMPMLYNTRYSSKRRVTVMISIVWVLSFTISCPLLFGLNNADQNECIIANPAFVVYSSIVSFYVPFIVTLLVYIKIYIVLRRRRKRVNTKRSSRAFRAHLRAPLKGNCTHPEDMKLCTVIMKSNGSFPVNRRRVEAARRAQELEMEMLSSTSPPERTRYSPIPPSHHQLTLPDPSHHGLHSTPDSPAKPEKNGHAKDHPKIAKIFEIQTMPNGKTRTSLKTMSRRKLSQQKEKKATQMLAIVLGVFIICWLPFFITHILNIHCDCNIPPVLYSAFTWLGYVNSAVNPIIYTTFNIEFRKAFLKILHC

SMILES	Ki (D(3) dopamine receptor) [nM]	Ki (D(2) dopamine receptor) [nM]	Ki (D(4) dopamine receptor) [nM]
c1ccc(CN2CCC(n3nccc3-c3ccccc3)CC2)cc1	810	510	15
Cc1c(-c2ccccc2)cnn1C1CCN(Cc2cccc(Cl)c2)CC1	820	370	3.1
Cc1c(-c2ccccc2)cnn1C1CCN(Cc2cccc(C#N)c2)CC1	4400	> 1700	5.2
c1ccc(CN2CCC(n3nnc(-c4ccccc4)n3)CC2)cc1	1400	1100	27
c1ccc(CN2CCC(n3nnnc3-c3ccccc3)CC2)cc1	> 4400	> 1800	1200
Cc1c(-c2ccccc2)n[nH]c1C1CCN(Cc2ccccc2)CC1	450	90	4.7
Cc1c(-c2ccccc2)nnn1C1CCN(Cc2ccccc2)CC1	2500	1600	17

More lines, now with the values ahead:

Ki (D(3) dopamine receptor) [nM]	Ki (D(2) dopamine receptor) [nM]	Ki (D(4) dopamine receptor) [nM]	SMILES
1300	460	32	c1ccc(CN2CCC(n3cc(-c4ccccc4)nn3)CC2)cc1
3000	310	140	Cc1cc(-c2ccccc2)n(C2CCN(Cc3ccccc3)CC2)n1
450	140	2.5	Cc1c(-c2ccccc2)cnn1C1CCN(Cc2ccccc2)CC1
2200	1200	18	Cc1nnn(C2CCN(Cc3ccccc3)CC2)c1-c1ccccc1
260	15	1.2	Cc1nn(C2CCN(Cc3cccc(C#N)c3)CC2)cc1-c1ccccc1
28	6.1	0.39	Cc1nn(C2CCN(Cc3ccccc3)CC2)cc1-c1ccccc1
740	450	40	c1ccc(CN2CCC(n3cnc(-c4ccccc4)c3)CC2)cc1
120	15	3.1	Cc1nn(C2CCN(Cc3cccc(Cl)c3)CC2)cc1-c1ccccc1
